Results from patent US7087375B1, “Method for determining the mechanism of HIV RT inhibitors” (priority 2000, dated 2006).
pIC50, pKi: −log10 of the molar value. “And” between values parts separate entries of the source, which are not always exact repeats. Equal entries are not always repeated. Where two headings read alike, the source gives them in different places. Marks after values point to notes of the source that are not given here.

Columns and labels:
[1] = tested on: HXB2 site-directed mutant T69S-SG; assay type: cell-based; details: virus T69S-SG
[2] = tested on: HXB2 site-directed mutant T69S-AG; assay type: cell-based; details: virus T69S-AG
[3] = tested on: HXB2 site-directed mutant M41L, M184V, T215Y; assay type: cell-based; details: virus M41L
[4] = tested on: HXB2 site-directed mutant D67N, K70R; assay type: cell-based; details: virus D67N
[5] = tested on: HXB2 site-directed mutant M41L, T69S-SG, T215Y; assay type: cell-based; details: virus M41L
[6] = tested on: HXB2 site-directed mutant T69S-SS; assay type: cell-based; details: virus T69S-SS
[7] = tested on: HXB2 site-directed mutant M41L, T69S-SS, T215Y; assay type: cell-based; details: virus M41L
[8] = tested on: HXB2 site-directed mutant M41L, T215Y; assay type: cell-based; details: virus M41L
[9] = tested on: HXB2 site-directed mutant M41L, T69S-AG, T215Y; assay type: cell-based; details: virus M41L
[10] = tested on: HXB2 site-directed mutant M41L, D67N, K70R, M184V, T215Y; assay type: cell-based; details: virus M41L
wild type HXB2 virus = assay: HIV drug susceptibility assay (recombinant virus, MT-4 cells)
Method: Phenotypic susceptibility of these viable recombinant viruses to nucleoside analogs was then determined. […] Fold resistance values were calculated by dividing the mean 50% inhibitory concentration (IC50) for a recombinant virus from a mutant clone by the mean IC50 for recombinant wild type virus (HXB2).

[11] = biological target: T1, HIV-1 RT mutant 41/67/70/184/215 (Human immunodeficiency virus type 1 group M subtype B, UniProt P04585, D654N/K657R/M628L/M771V/T802Y); assay type: biochemical; details: 41/67/70/184/215 RT
T1 construct: The final RT products, in a heterodimeric form (p66/p51); made in house; host or cells: E. coli XL1-Blue (vector pKK233-2)

[12] = biological target: T2, HIV-1 RT wild type (HXB2) (Human immunodeficiency virus type 1 group M subtype B, UniProt P04585); assay type: biochemical; details: for Fold resistance in RT-assay relative to HXB2: wild type HXB2 RT (reference); for pKi / Ki/Km: wild type HXB2 RT
T2 construct: The final RT products, in a heterodimeric form (p66/p51); made in house; host or cells: E. coli XL1-Blue (vector pKK233-2)

[13] = biological target: T3, HIV-1 RT mutant 41/184/215 (Human immunodeficiency virus type 1 group M subtype B, UniProt P04585, M628L/M771V/T802Y); assay type: biochemical; details: 41/184/215 RT
T3 construct: The final RT products, in a heterodimeric form (p66/p51); made in house; host or cells: E. coli XL1-Blue (vector pKK233-2)

HIV-1 RT mutant 69S-SS = biological target: T4, HIV-1 RT mutant 69S-SS (Human immunodeficiency virus type 1 group M subtype B, UniProt P04585, INS655SS/T656S); assay type: biochemical; details: 69S-SS RT
T4 construct: The final RT products, in a heterodimeric form (p66/p51); made in house; host or cells: E. coli XL1-Blue (vector pKK233-2)

[14] = biological target: T5, HIV-1 RT mutant 41/69S-SS/215 (Human immunodeficiency virus type 1 group M subtype B, UniProt P04585, INS655SS/M628L/T656S/T802Y); assay type: biochemical; details: 41/69S-SS/215 RT
T5 construct: The final RT products, in a heterodimeric form (p66/p51); made in house; host or cells: E. coli XL1-Blue (vector pKK233-2)

HIV-1 RT mutant 41/215 = HIV-1 RT mutant 41/215 (Human immunodeficiency virus type 1 group M subtype B, UniProt P04585, M628L/T802Y); assay: RT inhibition assay (Lenti RT, polyrA/oligo(dT), BrdUTP); assay type: biochemical; details: 41/215 RT
HIV-1 RT mutant 69S-AG = biological target: T6, HIV-1 RT mutant 69S-AG (Human immunodeficiency virus type 1 group M subtype B, UniProt P04585, INS655SA/T656G/T656S); assay type: biochemical; details: 69S-AG RT
T6 construct: The final RT products, in a heterodimeric form (p66/p51); made in house; host or cells: E. coli XL1-Blue (vector pKK233-2)

[15] = biological target: T7, HIV-1 RT mutant 41/67/70/184/210/211/214/215 (Human immunodeficiency virus type 1 group M subtype B, UniProt P04585, D654N/K657R/L797W/L801F/M628L/M771V/R798K/T802Y); assay type: biochemical; details: 41/67/70/184/210/211/214/215 RT
T7 construct: The final RT products, in a heterodimeric form (p66/p51); made in house; host or cells: E. coli XL1-Blue (vector pKK233-2)

[16] = biological target: T8, HIV-1 RT mutant 41/67/70/215 (Human immunodeficiency virus type 1 group M subtype B, UniProt P04585, D654N/K657R/M628L/T802Y); assay type: biochemical; details: 41/67/70/215 RT
T8 construct: The final RT products, in a heterodimeric form (p66/p51); made in house; host or cells: E. coli XL1-Blue (vector pKK233-2)

HIV-1 RT mutant 69S-SG = biological target: T9, HIV-1 RT mutant 69S-SG (Human immunodeficiency virus type 1 group M subtype B, UniProt P04585, INS655SS/T656G/T656S); assay type: biochemical; details: 69S-SG RT
T9 construct: The final RT products, in a heterodimeric form (p66/p51); made in house; host or cells: E. coli XL1-Blue (vector pKK233-2)

[17] = no extra additions (without ATP)
[18] = nontreated pyrophosphatase ATP 3.2 mM (control), single experiment
[19] = pyrophosphatase treated ATP 3.2 mM, single experiment

Compound: Cc1cn([C@H]2C=C[C@@H](CO)O2)c(=O)[nH]c1=O [d4T, stavudine]
- Fold resistance in IC50 relative to HXB2 [1]: 4.4 fold and 4.4 +/− 1.1 fold
- Fold resistance in IC50 relative to HXB2 [2]: 6.9 fold and 6.9 +/− 2.7 fold
- Fold resistance in IC50 relative to HXB2 [3]: 2.2 fold
- Fold resistance in IC50 relative to HXB2 [4]: 5.1 fold
- Fold resistance in IC50 relative to HXB2 [5]: 4.0 fold
- Fold resistance in IC50 relative to HXB2 [6]: 4.4 fold
- Fold resistance in IC50 relative to HXB2 [7]: 7.1 fold
- Fold resistance in IC50 relative to HXB2 [8]: 2.6 fold
- Fold resistance in IC50 relative to HXB2 [9]: 3.1 fold
- Fold resistance in IC50 relative to HXB2 [10]: 3.7 fold and 3.7 +/− 1.0 fold
- pIC50 (wild type HXB2 virus; Human immunodeficiency virus 1, HXB2, MT4, read-out: mean IC50 for the wild type control virus): 5.92
- Virus Assay fold resistance (wild type HXB2 virus; wild type HXB2 virus (reference)): 1.0 fold

Compound: AZT-TP
- Fold resistance in RT-assay relative to HXB2 ([11]; ATP 3.2 mM): 4.1 fold
- pKi ([11]; ATP 3.2 mM): 7.30
- Ki/Km ([11]; ATP 3.2 mM): 0.13
- Fold resistance in RT-assay relative to HXB2 ([11]; without ATP): 0.3 fold
- pKi ([11]; without ATP): 9.22
- Ki/Km ([11]; without ATP): 0.01
- Fold resistance in RT-assay relative to HXB2 ([12]; ATP 3.2 mM): 1.0 fold
- Fold resistance in RT-assay relative to HXB2 ([12]; without ATP): 1.0 fold
- pKi ([12]; ATP 3.2 mM): 8.00
- Ki/Km ([12]; ATP 3.2 mM): 0.032
- pKi ([12]; ATP 3.2 mM + PPi 150 μM): 7.23
- Ki/Km ([12]; ATP 3.2 mM + PPi 150 μM): 0.11
- pKi ([12]; ATP 6.0 mM): 7.40
- Ki/Km ([12]; ATP 6.0 mM): 0.049
- pKi ([12]; ATP […]): 8.32
- Ki/Km ([12]; ATP […]): 0.02
- pKi ([12]; GTP 0.5 mM): 8.05
- Ki/Km ([12]; GTP 0.5 mM): 0.028
- pKi ([12]; PPi 150 μM): 7.59
- Ki/Km ([12]; PPi 150 μM): 0.087
- pKi [12, 17]: 8.24
- Ki/Km [12, 17]: 0.034
- Fold resistance in RT-assay relative to HXB2 ([13]; ATP 3.2 mM): 5.9 fold
- Ki/Km ([13]; ATP 3.2 mM): 0.19
- Fold resistance in RT-assay relative to HXB2 ([13]; without ATP): 1.3 fold
- pKi ([13]; without ATP): 8.66
- Ki/Km ([13]; without ATP): 0.045
- Fold resistance in RT-assay relative to HXB2 (HIV-1 RT mutant 69S-SS; ATP 3.2 mM): 3.0 fold
- pKi (HIV-1 RT mutant 69S-SS; ATP 3.2 mM): 7.68
- Ki/Km (HIV-1 RT mutant 69S-SS; ATP 3.2 mM): 0.095
- Fold resistance in RT-assay relative to HXB2 (HIV-1 RT mutant 69S-SS; without ATP): 0.8 fold
- pKi (HIV-1 RT mutant 69S-SS; without ATP): 8.77
- Ki/Km (HIV-1 RT mutant 69S-SS; without ATP): 0.026
- Fold resistance in RT-assay relative to HXB2 ([14]; ATP 3.2 mM): 20 fold and 19.7 fold
- pKi ([14]; ATP 3.2 mM): 6.88
- Ki/Km ([14]; ATP 3.2 mM): 0.63
- Fold resistance in RT-assay relative to HXB2 ([14]; without ATP): 0.9 fold
- pKi ([14]; without ATP): 8.85
- Ki/Km ([14]; without ATP): 0.031
- Fold resistance in RT-assay relative to HXB2 (HIV-1 RT mutant 41/215; ATP 3.2 mM): 3 fold and 2.9 fold
- pKi (HIV-1 RT mutant 41/215; ATP 3.2 mM): 7.47
- Ki/Km (HIV-1 RT mutant 41/215; ATP 3.2 mM): 0.094
- level of resistance in RT assay relative to wild type (HIV-1 RT mutant 41/215; GTP 0.5 mM): 1.2–1.3 fold
- level of resistance in RT assay relative to wild type (HIV-1 RT mutant 41/215; PPi 150 μM): 1.1 fold
- Fold resistance in RT-assay relative to HXB2 (HIV-1 RT mutant 41/215; without ATP): 0.8 fold
- pKi (HIV-1 RT mutant 41/215; without ATP): 8.52
- Ki/Km (HIV-1 RT mutant 41/215; without ATP): 0.027
- Fold resistance in RT-assay relative to HXB2 (HIV-1 RT mutant 69S-AG; ATP 3.2 mM): 14.0 fold
- pKi (HIV-1 RT mutant 69S-AG; ATP 3.2 mM): 6.90
- Ki/Km (HIV-1 RT mutant 69S-AG; ATP 3.2 mM): 0.45
- level of resistance in RT assay relative to wild type (HIV-1 RT mutant 69S-AG; GTP 0.5 mM): 1.2–1.3 fold
- level of resistance in RT assay relative to wild type (HIV-1 RT mutant 69S-AG; PPi 150 μM): 3.3
- Fold resistance in RT-assay relative to HXB2 (HIV-1 RT mutant 69S-AG; without ATP): 1.9 fold
- pKi (HIV-1 RT mutant 69S-AG; without ATP): 8.19
- Ki/Km (HIV-1 RT mutant 69S-AG; without ATP): 0.064
- Fold resistance in RT-assay relative to HXB2 ([15]; ATP 3.2 mM): 2.8 fold
- pKi ([15]; ATP 3.2 mM): 7.28
- Ki/Km ([15]; ATP 3.2 mM): 0.09
- Fold resistance in RT-assay relative to HXB2 ([15]; without ATP): 0.3 fold
- pKi ([15]; without ATP): 8.89
- Ki/Km ([15]; without ATP): 0.011
- Fold resistance in RT-assay relative to HXB2 ([16]; ATP 3.2 mM): 16.6 fold and 16.6 (+/−0.3) fold
- pKi ([16]; ATP 3.2 mM): 7.41
- Ki/Km ([16]; ATP 3.2 mM): 0.53
- Fold resistance in RT-assay relative to HXB2 ([16]; ATP 3.2 mM + PPi 150 μM): 12.6 fold and 12.6 (+/−3) fold
- pKi ([16]; ATP 3.2 mM + PPi 150 μM): 6.55
- Ki/Km ([16]; ATP 3.2 mM + PPi 150 μM): 1.39
- Fold resistance in RT-assay relative to HXB2 ([16]; ATP 6.0 mM): 15.9 (+/−4) fold
- pKi ([16]; ATP 6.0 mM): 6.75
- Ki/Km ([16]; ATP 6.0 mM): 0.78
- pKi ([16]; ATP […]): 8.19
- Ki/Km ([16]; ATP […]): 0.1
- Fold resistance in RT-assay relative to HXB2 ([16]; GTP 0.5 mM): 1.2 (+/−0.03) fold
- pKi ([16]; GTP 0.5 mM): 8.40
- Ki/Km ([16]; GTP 0.5 mM): 0.034
- Fold resistance in RT-assay relative to HXB2 ([16]; PPi 150 μM): 10.5 fold and 10.5 (+/−3) fold
- pKi ([16]; PPi 150 μM): 7.08
- Ki/Km ([16]; PPi 150 μM): 0.92
- Fold resistance in RT-assay relative to HXB2 [16, 17]: 0.9 fold and 0.9 (+/−0.1) fold
- Ki/Km [16, 17]: 0.03
- pKi [16, 18]: 7.70
- Ki/Km [16, 18]: 0.46*
- pKi [16, 19]: 7.80
- Ki/Km [16, 19]: 0.42*
- Fold resistance in RT-assay relative to HXB2 (HIV-1 RT mutant 69S-SG; ATP 3.2 mM): 8.4 fold
- pKi (HIV-1 RT mutant 69S-SG; ATP 3.2 mM): 7.02
- Ki/Km (HIV-1 RT mutant 69S-SG; ATP 3.2 mM): 0.27
- Fold resistance in RT-assay relative to HXB2 (HIV-1 RT mutant 69S-SG; without ATP): 1.1 fold
- pKi (HIV-1 RT mutant 69S-SG; without ATP): 8.42
- Ki/Km (HIV-1 RT mutant 69S-SG; without ATP): 0.038
